Measured values: PubChem BioAssay AID1963420 (Molecular Pharmacology Branch, DTP, NCI, 2024)

Test system: 494315-158-R-J1-PDC complex spheroid growth, percent test/control
Assay: Anticancer human tumor 494315-158-R-J1-PDC patient-derived soft tissue sarcoma cell line growth inhibition [Asc]
Settings: for IC50: curve of first compound; for viability, T/C: stronger effect = lower value; active = viability on the fitted dose curve at most 10% of control; inactive = the rest
In short: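 Stromal components (HUVEC and hMSC) are co-assembled with the cancer cells into multicellular spheroids. Drugs are then added singly or paired, at concentrations falling by half-log increments from a clinically achievable maximum, capped at 10 microM without known Cmax.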

[1] = second compound 0.1 µM, first compound 0.0316 µM
[2] = second compound 0.1 µM, first compound 0.1 µM
[3] = second compound 0.1 µM, first compound 0.316 µM
[4] = second compound 0.1 µM, first compound 1 µM
[5] = second compound 0.1 µM, first compound 3.16 µM
[6] = second compound 0.1 µM, first compound 10 µM
[7] = second compound 0.316 µM, first compound 0.0316 µM
[8] = second compound 0.316 µM, first compound 0.1 µM
[9] = second compound 0.316 µM, first compound 0.316 µM
[10] = second compound 0.316 µM, first compound 1 µM
[11] = second compound 0.316 µM, first compound 3.16 µM
[12] = second compound 0.316 µM, first compound 10 µM
[13] = second compound 1 µM, first compound 0.0316 µM
[14] = second compound 1 µM, first compound 0.1 µM
[15] = second compound 1 µM, first compound 0.316 µM
[16] = second compound 1 µM, first compound 1 µM
[17] = second compound 1 µM, first compound 3.16 µM
[18] = second compound 1 µM, first compound 10 µM
[19] = second compound 3.16 µM, first compound 0.0316 µM
[20] = second compound 3.16 µM, first compound 0.1 µM
[21] = second compound 3.16 µM, first compound 0.316 µM
[22] = second compound 3.16 µM, first compound 1 µM
[23] = second compound 3.16 µM, first compound 3.16 µM
[24] = second compound 3.16 µM, first compound 10 µM
[25] = second compound 10 µM, first compound 0.0316 µM
[26] = second compound 10 µM, first compound 0.1 µM
[27] = second compound 10 µM, first compound 0.316 µM
[28] = second compound 10 µM, first compound 1 µM
[29] = second compound 10 µM, first compound 3.16 µM
[30] = second compound 10 µM, first compound 10 µM
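Note: compound exposure lasted seven days after spheroids formed for three days.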

C=C(F)C(=O)N1CCN(c2nc(OCC3CCCN3C)nc3c2CCN(c2cccc4cccc(Cl)c24)C3)CC1CC#N (stereo not given) + Cc1c(S(C)(=O)=O)c(-c2cc(F)cc(N3CCN(c4ccc(NS(=O)(=O)c5ccc(NC(CCN6CCC(C(=O)OCCCP(=O)(O)O)CC6)CSc6ccccc6)c(S(=O)(=O)C(F)(F)F)c5)cc4)CC3)c2)c(-c2ccc(Cl)cc2)n1C(C)C
1.34 µM: IC50 (second compound 0.316 µM)
inactive: viability, T/C [1] 77.7% | viability, T/C [2] 79.6% | viability, T/C [3] 71.8% | viability, T/C [4] 73.7% | viability, T/C [5] 27.8% | viability, T/C [7] 73.5% | viability, T/C [8] 72.7% | viability, T/C [9] 75.1% | viability, T/C [10] 57% | viability, T/C [11] 25.6% | viability, T/C [13] 64.3% | viability, T/C [14] 67% | viability, T/C [15] 65.5% | viability, T/C [16] 61.1% | viability, T/C [17] 20.6% | viability, T/C [19] 55.9% | viability, T/C [20] 53.4% | viability, T/C [21] 47.8% | viability, T/C [22] 41.1% | viability, T/C [23] 11.1% | viability, T/C [25] 75.8% | viability, T/C [26] 78.5% | viability, T/C [27] 73.5% | viability, T/C [28] 65.3% | viability, T/C [29] 20%
0.367 µM: IC50 (second compound 3.16 µM)
1.47 µM: IC50 (second compound 10 µM)
active: viability, T/C [6] 0.16% | viability, T/C [12] 0.14% | viability, T/C [18] 0.12% | viability, T/C [24] 0.15% | viability, T/C [30] 0.24%
1.37 µM: IC50 (second compound 1 µM)
1.81 µM: IC50 (second compound 0.1 µM)

C=CC(=O)N1CCN(c2nc(=O)n(-c3c(C)ccnc3C(C)C)c3nc(-c4c(O)cccc4F)c(F)cc23)C(C)C1 (stereo not given) + Cc1c(S(C)(=O)=O)c(-c2cc(F)cc(N3CCN(c4ccc(NS(=O)(=O)c5ccc(NC(CCN6CCC(C(=O)OCCCP(=O)(O)O)CC6)CSc6ccccc6)c(S(=O)(=O)C(F)(F)F)c5)cc4)CC3)c2)c(-c2ccc(Cl)cc2)n1C(C)C
> 10 µM: IC50 (second compound 0.1 µM) | IC50 (second compound 0.316 µM) | IC50 (second compound 1 µM) | IC50 (second compound 3.16 µM) | IC50 (second compound 10 µM)
inactive: viability, T/C [1] 101% | viability, T/C [2] 84.5% | viability, T/C [3] 88.9% | viability, T/C [4] 100% | viability, T/C [5] 108% | viability, T/C [6] 91.7% | viability, T/C [7] 67.4% | viability, T/C [8] 75.3% | viability, T/C [9] 72.2% | viability, T/C [10] 89.9% | viability, T/C [11] 80% | viability, T/C [12] 78.3% | viability, T/C [13] 86.4% | viability, T/C [14] 63.5% | viability, T/C [15] 74.1% | viability, T/C [16] 79.3% | viability, T/C [17] 84% | viability, T/C [18] 66% | viability, T/C [19] 61.1% | viability, T/C [20] 60.2% | viability, T/C [21] 69.5% | viability, T/C [22] 79.9% | viability, T/C [23] 81.4% | viability, T/C [24] 60.9% | viability, T/C [25] 81.3% | viability, T/C [26] 84.5% | viability, T/C [27] 92.8% | viability, T/C [28] 90.1% | viability, T/C [29] 98.5% | viability, T/C [30] 67.3%

CCN1C(C(=O)NC23CCC(C(=O)O)(CC2)CC3)C(c2cccc(Cl)c2F)C2(C(=O)Nc3cc(Cl)ccc32)C12CCCCC2 (stereo not given) + Cc1c(S(C)(=O)=O)c(-c2cc(F)cc(N3CCN(c4ccc(NS(=O)(=O)c5ccc(NC(CCN6CCC(C(=O)OCCCP(=O)(O)O)CC6)CSc6ccccc6)c(S(=O)(=O)C(F)(F)F)c5)cc4)CC3)c2)c(-c2ccc(Cl)cc2)n1C(C)C
1.02 µM: IC50 (second compound 1 µM)
> 3 µM: IC50 (second compound 0.1 µM) | IC50 (second compound 0.316 µM) | IC50 (second compound 10 µM)
0.0717 µM: IC50 (second compound 3.16 µM)
inactive: viability, T/C (second compound 0.1 µM, first compound 0.00949 µM) 80.3% | viability, T/C (second compound 0.1 µM, first compound 0.03 µM) 86.6% | viability, T/C (second compound 0.1 µM, first compound 0.0949 µM) 84.4% | viability, T/C (second compound 0.1 µM, first compound 0.3 µM) 77.4% | viability, T/C (second compound 0.1 µM, first compound 0.949 µM) 77.4% | viability, T/C (second compound 0.1 µM, first compound 3 µM) 67% | viability, T/C (second compound 0.316 µM, first compound 0.00949 µM) 79.1% | viability, T/C (second compound 0.316 µM, first compound 0.03 µM) 74.9% | viability, T/C (second compound 0.316 µM, first compound 0.0949 µM) 64.4% | viability, T/C (second compound 0.316 µM, first compound 0.3 µM) 60.7% | viability, T/C (second compound 0.316 µM, first compound 0.949 µM) 63.3% | viability, T/C (second compound 0.316 µM, first compound 3 µM) 54.3% | viability, T/C (second compound 1 µM, first compound 0.00949 µM) 66% | viability, T/C (second compound 1 µM, first compound 0.03 µM) 66.3% | viability, T/C (second compound 1 µM, first compound 0.0949 µM) 68.8% | viability, T/C (second compound 1 µM, first compound 0.3 µM) 62.8% | viability, T/C (second compound 1 µM, first compound 0.949 µM) 50.8% | viability, T/C (second compound 1 µM, first compound 3 µM) 39.7% | viability, T/C (second compound 3.16 µM, first compound 0.00949 µM) 53.3% | viability, T/C (second compound 3.16 µM, first compound 0.03 µM) 45.1% | viability, T/C (second compound 3.16 µM, first compound 0.0949 µM) 53.8% | viability, T/C (second compound 3.16 µM, first compound 0.3 µM) 46.5% | viability, T/C (second compound 3.16 µM, first compound 0.949 µM) 45.8% | viability, T/C (second compound 3.16 µM, first compound 3 µM) 35.6% | viability, T/C (second compound 10 µM, first compound 0.00949 µM) 83% | viability, T/C (second compound 10 µM, first compound 0.03 µM) 73.3% | viability, T/C (second compound 10 µM, first compound 0.0949 µM) 68.4% | viability, T/C (second compound 10 µM, first compound 0.3 µM) 68.5% | viability, T/C (second compound 10 µM, first compound 0.949 µM) 52.8% | viability, T/C (second compound 10 µM, first compound 3 µM) 52.8%
